Calls of active or inactive are those of the source.

The target of data set [1] is T1, High affinity choline transporter 1 (Homo sapiens, UniProt Q9GZV3).
T1 sequence (Q9GZV3 whole entry): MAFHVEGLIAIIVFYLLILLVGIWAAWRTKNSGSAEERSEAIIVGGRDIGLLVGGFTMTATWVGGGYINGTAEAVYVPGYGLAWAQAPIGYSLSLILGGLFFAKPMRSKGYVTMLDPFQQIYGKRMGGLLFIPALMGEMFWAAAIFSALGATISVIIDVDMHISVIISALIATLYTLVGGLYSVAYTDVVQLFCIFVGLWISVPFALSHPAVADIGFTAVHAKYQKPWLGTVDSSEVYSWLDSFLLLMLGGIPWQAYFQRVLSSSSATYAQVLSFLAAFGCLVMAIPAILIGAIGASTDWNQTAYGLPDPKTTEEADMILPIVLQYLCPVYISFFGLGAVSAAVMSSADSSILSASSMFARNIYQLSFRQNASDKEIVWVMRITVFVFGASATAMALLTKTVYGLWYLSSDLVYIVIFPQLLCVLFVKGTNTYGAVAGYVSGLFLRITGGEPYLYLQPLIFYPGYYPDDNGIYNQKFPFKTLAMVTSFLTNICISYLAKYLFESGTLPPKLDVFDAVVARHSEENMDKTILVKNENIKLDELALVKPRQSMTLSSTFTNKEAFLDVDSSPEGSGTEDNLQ
Nature of the data set: human choline transporter blockers, potency – cell-based, 5-point CRC, membrane potential dye, dose response (AID 504840). The data set is classed as functional.

The target of a further data set is Protein Wnt-3a (Mus musculus, UniProt P27467). Nature of the data set: antagonism of Wnt3a pathway luciferase reporter – Wnt-LIGHT cells, luminescence, selectivity assay for Gli-SUFU antagonist project, dose response (AID 651570).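 Also: Wnt-LIGHT reporter cells stimulated with conditioned medium from Wnt3a-producing cells.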 The data set is classed as functional. The conditions noted are these: read-out: IC50_Mean.
In the next data set the test system is INS1. Nature of the data set: INS-1E survival protection against cytokine death – cell-based, luminescence, retest, dose response (AID 449756).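 Also: cell death triggered by IL-1 beta plus TNF-alpha plus IFN-gamma mixture; protective hits raise ATP signal compared with cytokine alone wells.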 Format: functional. Particulars: Rattus norvegicus.
Data set [2] addresses ATP-dependent molecular chaperone HSP82 (Candida albicans (strain WO-1) (Yeast), UniProt C4YTQ8). Nature of the data set: steroid-induced GRE reporter decrease in yeast – S. cerevisiae, luminescence, Hsp90 inhibitor project, dose response (AID 2400).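 Also: beta-galactosidase luminescence from glucocorticoid response element reporter as proxy for Hsp90 function; inhibitor potency where signal loss means Hsp90 inhibition.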 Format: functional, cell-based.
For data set [3], the target named is T2, Serine/threonine-protein phosphatase (Candida dubliniensis (strain CD36 / CBS 7987 / NCPF 3949 / NRRLY-17841) (Yeast), UniProt B9W6M3).
T2 sequence (B9W6M3 whole entry): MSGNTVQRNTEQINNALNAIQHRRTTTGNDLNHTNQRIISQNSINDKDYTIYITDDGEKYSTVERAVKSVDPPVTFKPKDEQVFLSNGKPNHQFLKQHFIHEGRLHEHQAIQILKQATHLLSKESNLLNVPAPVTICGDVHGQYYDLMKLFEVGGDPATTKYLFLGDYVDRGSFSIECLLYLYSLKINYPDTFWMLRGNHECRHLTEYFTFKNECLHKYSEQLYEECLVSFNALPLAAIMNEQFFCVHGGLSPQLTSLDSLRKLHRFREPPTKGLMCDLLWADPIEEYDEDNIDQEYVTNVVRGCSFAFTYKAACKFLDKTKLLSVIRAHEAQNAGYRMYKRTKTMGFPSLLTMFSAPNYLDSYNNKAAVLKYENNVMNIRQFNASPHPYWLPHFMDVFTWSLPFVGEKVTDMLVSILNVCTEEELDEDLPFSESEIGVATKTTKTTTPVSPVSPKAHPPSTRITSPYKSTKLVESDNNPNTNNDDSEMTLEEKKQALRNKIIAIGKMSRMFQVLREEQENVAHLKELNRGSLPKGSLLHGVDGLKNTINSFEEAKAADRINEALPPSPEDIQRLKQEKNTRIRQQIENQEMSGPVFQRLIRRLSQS
Nature of the data set: blockers of CaCl2-induced CDRE-lacZ signaling – S. cerevisiae, luminescence, secondary, dose response (AID 2388).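 Also: yeast reporter cells carrying a calcineurin-responsive lacZ construct stimulated with calcium chloride; luminescent beta-galactosidase reporter signal in whole cells rather than isolated phosphatase activity; potency for inhibition where a drop in reporter signal means calcineurin blockade.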 Format: functional, cell-based.

Data set [4] is described as follows: NIH-3T3 fibroblast cytotoxicity, dose response, cytotoxicity control, cell-based, fluorescence, Alamar Blue, secondary assay (AID 2327).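 Also: NIH-3T3 mouse fibroblasts cultured with fluconazole at 8 µg/mL.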 The data set is classed as functional.
Data set [5] in a line: fluconazole-exposed Candida albicans growth modulators – fluorescence, retest, confirmation (AID 2467). The data set is classed as functional, cell-based.
The target of data set [6] is T3, Cytochrome P450 2C9 (Homo sapiens, UniProt P11712).
The target of a further data set is Cytochrome P450 3A4 (Homo sapiens, UniProt P08684).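 Also: CYP3A4 tested as one member of a cytochrome P450 panel screen.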
In data set [7] the target is T4, Lysine-specific demethylase 4C (Homo sapiens, UniProt Q9H3R0).
T4 sequence (Q9H3R0 whole entry): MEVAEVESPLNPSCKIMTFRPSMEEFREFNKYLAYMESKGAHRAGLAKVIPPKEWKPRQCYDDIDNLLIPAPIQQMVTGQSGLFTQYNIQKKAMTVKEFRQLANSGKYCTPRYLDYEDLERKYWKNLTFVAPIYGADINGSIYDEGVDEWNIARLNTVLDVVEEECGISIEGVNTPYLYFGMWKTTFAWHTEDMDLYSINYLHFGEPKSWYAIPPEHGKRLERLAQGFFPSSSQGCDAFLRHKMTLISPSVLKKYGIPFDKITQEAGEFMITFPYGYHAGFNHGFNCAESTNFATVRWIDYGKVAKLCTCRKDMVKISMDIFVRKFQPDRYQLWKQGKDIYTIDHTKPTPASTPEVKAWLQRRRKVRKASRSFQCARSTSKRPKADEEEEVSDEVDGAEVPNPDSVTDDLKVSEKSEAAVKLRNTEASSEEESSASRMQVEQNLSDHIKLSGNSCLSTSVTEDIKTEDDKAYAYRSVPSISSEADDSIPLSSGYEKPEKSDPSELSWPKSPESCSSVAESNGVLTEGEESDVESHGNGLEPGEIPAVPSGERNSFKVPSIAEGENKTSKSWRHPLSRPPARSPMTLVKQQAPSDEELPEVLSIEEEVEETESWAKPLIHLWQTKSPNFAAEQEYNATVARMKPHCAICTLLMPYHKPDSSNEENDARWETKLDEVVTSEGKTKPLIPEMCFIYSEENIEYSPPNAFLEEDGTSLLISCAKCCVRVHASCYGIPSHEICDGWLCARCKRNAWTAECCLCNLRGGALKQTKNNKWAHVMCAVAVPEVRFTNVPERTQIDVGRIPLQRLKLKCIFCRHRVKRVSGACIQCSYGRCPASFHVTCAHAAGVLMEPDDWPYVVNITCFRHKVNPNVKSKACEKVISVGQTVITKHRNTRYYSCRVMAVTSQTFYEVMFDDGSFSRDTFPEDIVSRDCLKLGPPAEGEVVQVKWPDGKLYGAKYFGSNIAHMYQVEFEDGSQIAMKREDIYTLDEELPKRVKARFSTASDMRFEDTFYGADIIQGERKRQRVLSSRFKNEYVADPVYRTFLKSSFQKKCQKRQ
Nature of the data set: inhibition of JMJD2C H3K9me3 demethylation – biochemical, DELFIA europium, cherry-picked samples, dose response (AID 488835). Format: functional.

Data set [8] deals with FAD-linked sulfhydryl oxidase ALR (Homo sapiens, UniProt P55789). Nature of the data set: ALR-catalysed DTT oxidation blockers – biochemical, H2O2 detection, luminescence, cherry-pick, dose response (AID 493248).
Data set [9] concerns the target T5, Polyadenylate-binding protein 1 (Homo sapiens, UniProt P11940). Nature of the data set: MLLE binding blockers, Cy5 peptide tracer – biochemical, fluorescence polarization, Cy5-PAM2 peptide, secondary, miRNA deadenylation inhibitor project, dose response (AID 602260). Format: functional. The conditions noted are these: read-out: IC50_Mean. On the technique in general: Fluorescence polarisation rises when a labelled molecule tumbles more slowly, as on binding a larger partner.

In data set [10] the target is T5, Polyadenylate-binding protein 1. Nature of the data set: MLLE domain peptide-binding blockers, IC50 – biochemical, fluorescence polarization, FITC-PAM2 peptide, dose response (AID 602259). Format: functional. Particulars: read-out: IC50_Mean.
The target in data set [11] is Ras and Rab interactor 1/Tyrosine-protein kinase ABL1 (Homo sapiens, UniProt P00519+Q13671). The data set is classed as functional.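 Also: biochemical TR-FRET dose-response test measuring inhibition of binding between Rin1 and Abl proteins.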
In data set [12] the target is T3, Cytochrome P450 2C9. The source holds these as a separate data set.
Data set [13] deals with BJ. Nature of the data set: cells. Format: functional, cell-based. The conditions noted are these: Homo sapiens.
In the next data set the target is Paired box protein Pax-8 (Homo sapiens, UniProt Q06710). Nature of the data set: PAX8 transcriptional activity inhibition in RMG-I – RMG-I cells, luciferase, cherry-pick, dose response (AID 687027).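 Also: luciferase reporter driven by Pax8 target thyroperoxidase promoter measured by SteadyGlo luminescence.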 The data set is classed as functional, cell-based.
For data set [14], the system named is BJ. Nature of the data set: growth inhibition of engineered Ras-driven BJ cells – cell-based, alamar blue fluorescence, cherrypicked samples, dose response (AID 2631).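 Also: confirmatory dose-response assay in RAS-dependent BJ fibroblasts engineered with TERT, LT and ST, with cytotoxicity read by fluorescence.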 Format: functional. The conditions noted are these: Homo sapiens.
The nature of data set [15]: DRD fibroblast viability loss – cell-based, non-viral oncogenic, luminescence, dose response (AID 1934). Format: functional. Particulars: Homo sapiens.
The subject of data set [16] is BJ. Nature of the data set: BJ-TERT fibroblast viability loss – cell-based, RAS-independent, luminescence, dose response (AID 1933). Format: functional. The conditions noted are these: Homo sapiens.
The nature of data set [17]: general cell-killing toxicity readout – plate reader, dry powder samples, cytotoxicity control for PAX8 inhibitor project, dose response (AID 743021). Format: functional, cell-based.
Data set [18] deals with BJ. Nature of the data set: BJ-TERT-LT-ST fibroblast viability loss – cell-based, RAS-independent, luminescence, dose response (AID 1935).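 Also: BJ fibroblasts immortalized with TERT plus LT and ST oncogenes.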 The data set is classed as functional. Particulars: Homo sapiens.
Data set [19] has as its target T6, Low molecular weight phosphotyrosine protein phosphatase (Homo sapiens, UniProt P24666).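 Also: Dose-response confirmation assay measuring inhibition of LMPTP enzyme activity by fluorescence intensity read-out.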
T6 sequence (P24666 whole entry): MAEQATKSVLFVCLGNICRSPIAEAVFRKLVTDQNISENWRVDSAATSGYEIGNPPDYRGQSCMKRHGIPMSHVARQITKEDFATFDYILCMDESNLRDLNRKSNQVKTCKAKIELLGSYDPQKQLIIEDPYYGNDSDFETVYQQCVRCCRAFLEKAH
Format: functional. Particulars: read-out: IC50_Mean.

In a further data set the target is Cytochrome P450 2C19 (Homo sapiens, UniProt P33261). Nature of the data set: Cytochrome panel assay with activity outcomes. Panel member name: p450-cyp2c19 Compounds with AC50 equal or less than 10 uM are considered active. The data set is classed as functional. Particulars: read-out: AC50.

T3 sequence (P11712 whole entry): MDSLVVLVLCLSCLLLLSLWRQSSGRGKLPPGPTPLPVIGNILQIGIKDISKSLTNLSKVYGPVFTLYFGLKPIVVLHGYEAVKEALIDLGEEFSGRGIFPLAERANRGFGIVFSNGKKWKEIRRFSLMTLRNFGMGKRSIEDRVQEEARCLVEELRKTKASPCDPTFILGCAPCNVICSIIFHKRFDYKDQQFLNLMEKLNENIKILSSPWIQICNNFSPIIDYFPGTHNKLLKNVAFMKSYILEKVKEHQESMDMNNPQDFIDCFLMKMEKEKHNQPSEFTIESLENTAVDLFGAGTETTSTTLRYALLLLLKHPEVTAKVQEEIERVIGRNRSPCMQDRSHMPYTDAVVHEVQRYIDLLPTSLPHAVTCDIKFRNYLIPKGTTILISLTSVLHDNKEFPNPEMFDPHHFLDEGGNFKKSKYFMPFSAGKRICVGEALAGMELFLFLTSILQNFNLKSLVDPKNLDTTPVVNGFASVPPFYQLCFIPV
Chain of ATP-dependent molecular chaperone HSP82 (C4YTQ8 whole entry): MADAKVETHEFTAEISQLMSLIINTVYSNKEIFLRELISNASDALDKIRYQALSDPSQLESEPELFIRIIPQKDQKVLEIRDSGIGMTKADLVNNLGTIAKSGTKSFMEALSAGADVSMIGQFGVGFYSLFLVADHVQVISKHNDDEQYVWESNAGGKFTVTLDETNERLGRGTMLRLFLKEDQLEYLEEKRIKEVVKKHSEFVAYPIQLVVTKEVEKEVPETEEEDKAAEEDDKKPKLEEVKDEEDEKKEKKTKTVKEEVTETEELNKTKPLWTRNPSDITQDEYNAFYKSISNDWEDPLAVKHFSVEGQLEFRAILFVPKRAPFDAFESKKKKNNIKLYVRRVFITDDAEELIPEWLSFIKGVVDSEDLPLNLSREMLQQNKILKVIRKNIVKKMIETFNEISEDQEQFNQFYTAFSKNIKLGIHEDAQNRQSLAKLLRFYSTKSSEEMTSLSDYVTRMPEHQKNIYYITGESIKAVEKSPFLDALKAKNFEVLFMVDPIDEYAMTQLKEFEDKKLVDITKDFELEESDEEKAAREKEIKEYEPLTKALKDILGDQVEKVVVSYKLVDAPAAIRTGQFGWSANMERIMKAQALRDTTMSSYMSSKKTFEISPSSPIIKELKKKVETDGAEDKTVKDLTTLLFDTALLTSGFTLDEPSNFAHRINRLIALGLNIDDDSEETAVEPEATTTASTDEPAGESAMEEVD
Chain of Cytochrome P450 3A4 (P08684 whole entry): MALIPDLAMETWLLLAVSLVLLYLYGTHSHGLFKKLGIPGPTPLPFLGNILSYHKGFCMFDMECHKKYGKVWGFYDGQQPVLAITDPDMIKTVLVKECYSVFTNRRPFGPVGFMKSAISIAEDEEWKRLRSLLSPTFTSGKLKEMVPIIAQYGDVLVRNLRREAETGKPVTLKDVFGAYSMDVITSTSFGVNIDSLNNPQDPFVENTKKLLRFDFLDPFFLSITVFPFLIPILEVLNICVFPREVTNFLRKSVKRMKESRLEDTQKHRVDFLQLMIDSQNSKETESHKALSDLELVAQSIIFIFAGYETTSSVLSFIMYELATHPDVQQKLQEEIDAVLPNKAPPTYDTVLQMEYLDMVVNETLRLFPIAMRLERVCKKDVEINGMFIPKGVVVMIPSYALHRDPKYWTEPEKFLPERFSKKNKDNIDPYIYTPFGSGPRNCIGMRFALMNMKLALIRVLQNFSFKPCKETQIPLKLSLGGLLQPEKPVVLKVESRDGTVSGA
Chain of Protein Wnt-3a (P27467 whole entry): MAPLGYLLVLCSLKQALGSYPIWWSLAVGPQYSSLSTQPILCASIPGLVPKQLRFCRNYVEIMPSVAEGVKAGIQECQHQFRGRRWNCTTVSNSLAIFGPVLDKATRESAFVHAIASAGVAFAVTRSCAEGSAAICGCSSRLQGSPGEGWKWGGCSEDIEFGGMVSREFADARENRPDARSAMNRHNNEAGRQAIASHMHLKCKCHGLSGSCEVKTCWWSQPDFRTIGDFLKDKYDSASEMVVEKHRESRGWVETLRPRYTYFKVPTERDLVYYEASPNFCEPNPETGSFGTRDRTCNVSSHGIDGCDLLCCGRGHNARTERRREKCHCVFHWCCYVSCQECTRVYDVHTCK
Chain of Ras and Rab interactor 1/Tyrosine-protein kinase ABL1 (P00519 whole entry): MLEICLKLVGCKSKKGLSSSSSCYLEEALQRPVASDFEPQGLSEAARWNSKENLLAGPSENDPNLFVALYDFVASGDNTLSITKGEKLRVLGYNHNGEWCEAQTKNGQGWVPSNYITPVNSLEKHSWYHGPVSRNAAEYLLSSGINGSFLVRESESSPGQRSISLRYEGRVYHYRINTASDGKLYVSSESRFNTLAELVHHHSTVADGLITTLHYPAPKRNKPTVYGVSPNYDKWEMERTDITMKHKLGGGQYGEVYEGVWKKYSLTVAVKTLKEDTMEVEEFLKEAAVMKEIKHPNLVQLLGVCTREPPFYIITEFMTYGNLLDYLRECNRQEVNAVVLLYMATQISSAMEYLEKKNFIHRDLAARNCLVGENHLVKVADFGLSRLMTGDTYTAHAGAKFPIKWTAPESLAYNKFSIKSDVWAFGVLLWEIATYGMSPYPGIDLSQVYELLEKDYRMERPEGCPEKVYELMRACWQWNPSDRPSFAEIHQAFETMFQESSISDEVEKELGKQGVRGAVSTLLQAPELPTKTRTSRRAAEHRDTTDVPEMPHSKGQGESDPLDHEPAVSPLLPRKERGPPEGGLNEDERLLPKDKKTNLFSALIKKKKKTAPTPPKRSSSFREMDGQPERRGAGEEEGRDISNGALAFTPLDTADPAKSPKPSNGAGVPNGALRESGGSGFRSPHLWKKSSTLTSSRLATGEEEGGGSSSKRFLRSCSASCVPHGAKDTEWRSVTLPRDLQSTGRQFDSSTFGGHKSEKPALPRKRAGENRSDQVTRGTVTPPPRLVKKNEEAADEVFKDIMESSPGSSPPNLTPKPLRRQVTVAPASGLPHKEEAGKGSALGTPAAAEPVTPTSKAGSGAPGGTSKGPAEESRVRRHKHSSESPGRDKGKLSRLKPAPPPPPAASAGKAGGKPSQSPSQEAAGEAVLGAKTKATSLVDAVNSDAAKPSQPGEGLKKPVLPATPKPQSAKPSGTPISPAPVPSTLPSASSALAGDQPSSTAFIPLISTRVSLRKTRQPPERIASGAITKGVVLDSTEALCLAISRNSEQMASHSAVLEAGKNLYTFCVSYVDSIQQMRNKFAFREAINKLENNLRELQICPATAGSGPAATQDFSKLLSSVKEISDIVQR
Chain of Ras and Rab interactor 1/Tyrosine-protein kinase ABL1 (Q13671 whole entry): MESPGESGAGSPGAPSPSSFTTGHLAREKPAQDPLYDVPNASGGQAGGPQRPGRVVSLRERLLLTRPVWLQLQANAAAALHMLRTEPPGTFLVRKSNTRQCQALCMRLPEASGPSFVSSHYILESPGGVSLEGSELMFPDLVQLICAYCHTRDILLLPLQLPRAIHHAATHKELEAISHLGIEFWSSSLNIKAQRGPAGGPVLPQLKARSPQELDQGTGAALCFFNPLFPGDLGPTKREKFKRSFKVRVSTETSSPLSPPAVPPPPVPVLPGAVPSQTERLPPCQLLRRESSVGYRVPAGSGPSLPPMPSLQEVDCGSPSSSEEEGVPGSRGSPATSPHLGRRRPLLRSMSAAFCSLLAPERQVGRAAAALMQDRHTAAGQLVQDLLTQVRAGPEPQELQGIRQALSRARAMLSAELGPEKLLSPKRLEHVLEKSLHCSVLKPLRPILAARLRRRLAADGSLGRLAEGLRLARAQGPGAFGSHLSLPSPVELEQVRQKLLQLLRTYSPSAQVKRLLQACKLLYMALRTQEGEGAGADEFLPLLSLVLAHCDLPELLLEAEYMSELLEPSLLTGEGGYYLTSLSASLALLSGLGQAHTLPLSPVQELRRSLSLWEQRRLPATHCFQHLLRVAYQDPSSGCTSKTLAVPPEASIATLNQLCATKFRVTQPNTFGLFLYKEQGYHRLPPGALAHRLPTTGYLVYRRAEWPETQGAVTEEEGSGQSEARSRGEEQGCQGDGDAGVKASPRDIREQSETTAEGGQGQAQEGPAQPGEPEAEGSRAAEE
T5 sequence (P11940 whole entry): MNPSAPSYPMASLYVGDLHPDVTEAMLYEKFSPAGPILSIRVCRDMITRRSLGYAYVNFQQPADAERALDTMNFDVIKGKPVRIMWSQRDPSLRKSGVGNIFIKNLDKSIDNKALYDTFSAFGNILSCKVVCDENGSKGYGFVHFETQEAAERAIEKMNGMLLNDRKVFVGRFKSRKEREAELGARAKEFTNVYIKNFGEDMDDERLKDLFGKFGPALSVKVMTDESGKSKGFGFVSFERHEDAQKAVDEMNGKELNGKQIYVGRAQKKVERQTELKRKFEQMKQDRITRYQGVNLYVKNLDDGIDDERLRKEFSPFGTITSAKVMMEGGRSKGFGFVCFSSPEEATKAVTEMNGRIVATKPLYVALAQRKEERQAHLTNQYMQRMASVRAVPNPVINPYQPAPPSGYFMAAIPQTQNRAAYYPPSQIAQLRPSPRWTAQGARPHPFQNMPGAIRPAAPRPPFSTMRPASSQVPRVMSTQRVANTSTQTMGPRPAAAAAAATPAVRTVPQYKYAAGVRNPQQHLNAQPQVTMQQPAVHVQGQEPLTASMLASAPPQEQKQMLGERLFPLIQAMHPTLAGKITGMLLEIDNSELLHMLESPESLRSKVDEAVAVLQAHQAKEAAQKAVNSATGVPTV
Chain of Paired box protein Pax-8 (Q06710 whole entry): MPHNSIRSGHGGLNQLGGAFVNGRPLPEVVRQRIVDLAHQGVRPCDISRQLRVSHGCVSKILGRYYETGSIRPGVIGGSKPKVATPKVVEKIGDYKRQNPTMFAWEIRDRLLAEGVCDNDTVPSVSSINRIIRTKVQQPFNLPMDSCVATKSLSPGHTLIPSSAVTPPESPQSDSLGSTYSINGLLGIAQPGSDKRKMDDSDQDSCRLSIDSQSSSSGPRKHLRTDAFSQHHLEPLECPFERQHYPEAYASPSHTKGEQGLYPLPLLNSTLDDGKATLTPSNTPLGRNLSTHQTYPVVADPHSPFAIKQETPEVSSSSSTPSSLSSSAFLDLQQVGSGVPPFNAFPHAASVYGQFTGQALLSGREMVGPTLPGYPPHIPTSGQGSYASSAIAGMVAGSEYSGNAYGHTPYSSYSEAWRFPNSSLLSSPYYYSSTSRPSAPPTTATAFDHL

The term AC50 denotes the midpoint of the concentration-response curve, whichever way the signal moves. For `CCCOc1ccc(Br)cc1CSC(=N)N`, the IC50 in [1] is 15.9 µM (active); at Protein Wnt-3a, 9.88 µM (active). Moreover, in the data set with INS1, the AC50 was 6.45 µM (active).
What is called EC50 is the concentration at which the effect is half-maximal. Turning to `CCc1nnc(NC(=O)CSc2ncc(-c3ccccc3)n2C)s1`, the EC50 is 23.1 µM (active) in [2], > 180 µM (inactive) in [3], > 150 µM (inactive) in [4] and 1.3 µM (active) in data set [5].
As to `Cc1ccc(S(=O)(=O)NCCC2=CCCCC2)cc1C(N)=O`, the IC50 on Protein Wnt-3a is 10.8 µM (active).
`C/C(Nc1c(C)n(C)n(-c2ccccc2)c1=O)=C1/C(=O)NC(=O)N(Cc2ccccc2)C1=O`: the AC50 result on Cytochrome P450 2C9 [6] and on Cytochrome P450 3A4 was “inconclusive” each time.
For `c1ccc(-c2nc(-c3ccco3)cs2)nc1`, the values for the AC50 in [7] and in data set [8] were 20 µM (active) and 0.593 µM (active), respectively.
`Cc1ccc(C)c(NC(S)=NNC(=O)c2csc(C(C)C)c2)c1`: the IC50 in [9] and in data set [10] was > 66 µM (inactive) in each case. The EC50 was > 160 µM (inactive) in [2], > 180 µM (inactive) in data set [3], > 150 µM (inactive) in data set [4] and 0.907 µM (active) in data set [5].
As for `CCOC(=O)CCCCC(=O)c1[nH]c(=O)[nH]c1CSCCO`, the IC50 in data set [11] is 0.695 µM (active).
As for `CN1CCN(c2ncc3nc(CCc4ccccc4)c(=O)n(C)c3n2)CC1`, the AC50 entry is “inconclusive” on Cytochrome P450 3A4 and 39.8 µM (inconclusive) at Cytochrome P450 2C9 [12].
Turning to `CCCCCCCN(C(=O)CCl)c1cccc(C)c1`, the EC50 in the data set with BJ [13] is 3.93 µM (inconclusive); in the data set on BJ [14] it was 3.17 µM (active); in [15], 2.48 µM (inconclusive); with BJ [16], 0.36 µM (inconclusive); in the data set with BJ [18] it was > 75 µM (inconclusive). Also, the values for the half-maximal activity concentration (AC50) (on Paired box protein Pax-8; in data set [17]) were 5.91 µM (active) and 9.19 µM (active), respectively.
With `N=c1c2c(-c3ccccc3)c(-c3ccccc3)n(Cc3ccco3)c2ncn1CCCn1ccnc1`, the EC50 with BJ [13] is 22.5 µM (active); with BJ [14], 1.81 µM (active); in data set [15], 9.54 µM (active); with BJ [16] it was 9.46 µM (active); with BJ [18], > 75 µM (not active).
Take `CN(Cc1c(F)cccc1Cl)C(=O)CNC(=O)c1ccc2c(c1)OCO2`: in data set [11], the IC50 was 6.04 µM (active).
In the case of `CCCCn1nnnc1C(c1cc2ccccc2o1)N1CCN(c2cc(C)nc3ccccc23)CC1` (centres undefined), the IC50 in data set [19] is 9.12 µM (active).
On to `C=CCN1CCc2c(cc(O)c(O)c2Br)[C@H](c2ccccc2)C1`, for which the AC50 result is “inconclusive” on Cytochrome P450 3A4 and 31.6 µM (inconclusive) at Cytochrome P450 2C9 [12].
With `Cc1ccccc1/C=C1\SC(=S)N(/N=C/c2cc([N+](=O)[O-])ccc2O)C1=O`, the EC50 is 20.7 µM (active) in [2], > 180 µM (inactive) in data set [3], > 160 µM (inactive) in data set [4] and 2.01 µM (active) in [5].
As for `CCC(=O)O[C@H]1CC[C@H]2[C@@H]3CCC4=CC(=O)CC[C@]4(C)[C@H]3CC[C@]12C` [TESTOSTERONE PROPIONATE], the AC50 on Cytochrome P450 2C19 was 10 µM (inconclusive); at Cytochrome P450 3A4, “inconclusive”; on Cytochrome P450 2C9 [12], 12.6 µM (inconclusive).

These data come from ChEMBL document CHEMBL1201862, “PubChem BioAssay data set” (2004).
